No end group written: not given here.
What was measured:
[1] = system: allergen specific T cells; experiment: T cell proliferation assay (72 h) with allergen-specific T cell lines from house dust mite allergic donors; % responders; format: cell-based, human; details: FIGS. 9b, 9c; subset of 22 donors having about 88% worldwide HLA Class II coverage
Method: This example includes a description of how peptides (singly or in combination) were screened for T cell reactivity in the donor population.
The T cell reactivity to peptides disclosed herein was determined either by measuring T cell proliferation of T cell lines specific to the allergens investigated or by measuring the cytokine production of allergen-specific T cells obtained from cultured PBMCs.
TCL specific to the six allergens rproDer p 1, rproDer f 1, rDer p 2, rDer f 2, Der p 4 and Der p 7, respectively or specific to the combination of all six allergens were established from peripheral blood mononuclear cells (PBMCs) of each donor.
PBMCs were isolated from freshly drawn heparinized blood by gradient centrifugation on lymphoprep (Nycomed, Norway), washed twice and re-suspended in RPMI 1640 medium with HEPES and ultraglutamine (Cambrex, Belgium) supplemented with 5% v/v AB-serum (Cambrex, Belgium), 100 units/ml penicillin, and 0.1 mg/ml streptomycin (Sigma, St Louis, USA) (referred to as AB-medium). Isolated PBMCs were CD8 depleted by Macs magnetic depletion according to the manufacturer's instructions (Miltenyi Biotec, Bergisch Gladbach, Germany). […]
The capacity of the different peptides to stimulate allergen specific T cells is analyzed in a standard 72 h T cell proliferation assay, as described in Henmar H et al., Clin Exp Immunol 2008; […]):316-23. […]

DRB1_1101 = DRB1_1101 (Homo sapiens, UniProt P01903+P01911, A100R/A169T/A87E/I96F/K41T/L162R/M171V/P40S/Q125H/Q178H/Q39Y/Q99D/R42S/S66Y/T262R/V115G/W38E); experiment: Competitive MHC class II binding assay, DRB1_1101
DRB1_0301 = DRB1_0301 (Homo sapiens, UniProt P01903+P01911, A100K/A102G/A103R/A169T/F55Y/I96L/K41T/L162R/M171V/P40S/Q125H/Q178H/Q39Y/R42S/S66N/T106N/T262R/W38E/Y61H); experiment: Competitive MHC class II binding assay, DRB1_0301
DPA10202-DPB10501 = molecular target: T1, DPA10202-DPB10501 (Homo sapiens, UniProt P04440+P20036, A42M/A65V/A84E/F191V/F64L/G113D/G114E/K142R/L158P/M116V/M62Q/P115A/Q81R/R125K/T114A/T199I/T259P/V234M); experiment: Competitive MHC class II binding assay, DPA10202-DPB10501; details: positive binding at cutoff 1000 nM; read-out: HLA-DPA10202-DPB10501
T1 sequence (P04440 30-258 A65V/A84E/F64L/G113D/G114E/M116V/P115A/R125K/T199I/V234M): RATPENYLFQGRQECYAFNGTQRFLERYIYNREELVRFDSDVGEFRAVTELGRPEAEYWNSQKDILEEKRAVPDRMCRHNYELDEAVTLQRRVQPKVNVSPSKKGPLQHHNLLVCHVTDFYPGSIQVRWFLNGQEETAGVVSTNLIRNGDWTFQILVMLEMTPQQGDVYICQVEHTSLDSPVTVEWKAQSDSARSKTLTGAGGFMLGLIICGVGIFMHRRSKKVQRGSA
T1 sequence (P20036 29-260 A42M/F191V/K142R/L158P/M62Q/Q81R/T114A/T259P): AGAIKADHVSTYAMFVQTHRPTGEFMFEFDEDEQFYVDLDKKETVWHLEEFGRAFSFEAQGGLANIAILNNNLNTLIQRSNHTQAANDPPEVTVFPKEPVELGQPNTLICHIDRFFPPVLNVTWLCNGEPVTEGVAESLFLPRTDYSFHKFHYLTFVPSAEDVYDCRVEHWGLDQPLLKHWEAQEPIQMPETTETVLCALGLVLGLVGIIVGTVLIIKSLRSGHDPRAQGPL

DPA10201-DPB11401 = experiment: Competitive MHC class II binding assay, DPA10201-DPB11401; details: read-out: HLA-DPA10201-DPB11401; positive binding at cutoff 1000 nM

Sequence	fraction of donors with T cell response (% donor response) [1]	IC50 (DRB1_1101) [nM]	IC50 (DRB1_0301) [nM]	IC50 (DPA10202-DPB10501) [nM]	IC50 (DPA10201-DPB11401) [nM]
LVKGQQYDIKYTWNVPKIAPK [pep-131]	higher percentage donor response than the other peptides	–	–	–	–
HAVNIVGYSNAQGVDYWIVR [pep-058]	–	< 1000	–	–	–
LVGDNGVLASAIATHAKIRD [pep-110]	higher percentage donor response than the other peptides	–	< 1000	< 1000	< 1000
GSGSSWAFSGVAATESAYLA [pep-044]	–	< 1000	–	–	–
